Like-named read-outs stand apart in the source and are kept apart here.
Tests used:
Type in all cases: in vivo
[1] = test system: barnyardgrass (Echinochloa crus-galli); assay: Test B flooded paddy test plant response; settings: Echinochloa crus-galli, read-out: Plant response rating, Barnyardgrass
In short: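 Rice, umbrella sedge, ducksalad and barnyardgrass at 2-leaf stage; pots flooded to 3 cm, compounds applied into paddy water, depth held throughout. Greenhouse 13 to 15 days, then visual rating vs untreated controls on 0–100 scale (0 no effect, 100 complete control); dash means no test result.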

[2] = test system: chickweed (Stellaria media); assay: Test B postemergence plant response; settings: Postemergence
In short: (§1)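 Visual injury ratings on a 0–100 scale, where 100 means complete control, were made 13 to 15 days after postemergence treatment of greenhouse-grown plants at the 1- to 4-leaf stage.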

[3] = test system: winter barley (Hordeum vulgare); assay: Test B postemergence plant response; settings: Postemergence
In short: as §1

[4] = test system: canarygrass (Phalaris minor); assay: Test B postemergence plant response; settings: Postemergence
In short: as §1

[5] = test system: windgrass (Apera spica-venti); assay: Test B postemergence plant response; settings: Postemergence
In short: as §1

corn (Zea mays) = assay: Test B pre-/postemergence plant response; settings: Zea mays; for Corn plant response rating (crop injury, 0 = no effect, 100 = complete kill) at 16 g/ha: 16 g ai/ha; for Corn plant response rating (crop injury, 0 = no effect, 100 = complete kill) at 31 g/ha: 31 g ai/ha, 100 complete control; for Corn plant response rating (crop injury, 0 = no effect, 100 = complete kill) at 62 g/ha: 62 g ai/ha; for Corn plant response rating (crop injury, 0 = no effect, 100 = complete kill) at 125 g/ha: 125 g ai/ha
In short: (§2)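 Visual scoring from 0 (no effect) to 100 (complete control) against untreated controls was done 13 to 15 days after greenhouse treatment. Chemicals were formulated in a surfactant-containing non-phytotoxic solvent and applied to soil preemergence or to 1- to 4-leaf (2-18 cm) plants postemergence.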

[6] = test system: lambsquarters (Chenopodium album); assay: Test B pre-/postemergence plant response; settings: Chenopodium album, read-out: Plant response rating, Lambsquarters; for pest or weed control at 16 g/ha: 16 g ai/ha; for pest or weed control at 31 g/ha: 31 g ai/ha, 100 complete control; for pest or weed control at 125 g/ha: 125 g ai/ha
In short: as §2

wild oat (Avena fatua) = assay: Test B pre-/postemergence plant response; settings: Avena fatua, read-out: Plant response rating, Oat, Wild; for pest or weed control at 16 g/ha: 16 g ai/ha; for pest or weed control at 31 g/ha: 31 g ai/ha, 100 complete control; for pest or weed control at 62 g/ha: 62 g ai/ha; for pest or weed control at 125 g/ha: 125 g ai/ha
In short: as §2

[7] = test system: velvetleaf (Abutilon theophrasti); assay: Test B pre-/postemergence plant response; settings: Abutilon theophrasti, post-emergence, Postemergence, read-out: Plant response rating, Velvetleaf
In short: as §2

[8] = 31 g ai/ha, scale 0 to 100, 0 no effect, 100 complete control
[9] = post-emergence, Postemergence, scale 0 to 100
[10] = post-emergence, Postemergence, scale 0 to 100, 0 no effect
[11] = pre-emergence, Preemergence, scale 0 to 100 (0 no effect, 100 complete control)
[12] = pre-emergence, Preemergence, 0 to 100 scale, 0 no effect
[13] = pre-emergence, Preemergence, scale 0 to 100

SMILES: CCc1cc(-c2ccc(C(F)(F)F)cc2)nn1-c1c(O)cnn(C)c1=O [Compound 11, 4-[5-ethyl-3-[4-(trifluoromethyl)phenyl]-1H-pyrazol-1-yl]-5-hydroxy-2-methyl-3(2H)-pyridazinone]
- pest or weed control at 62 g/ha ([1]; Flood (flooded paddy test), 62 g ai/ha, scale 0 to 100, 0 no effect, 100 complete control): 50%
- pest or weed control at 125 g/ha ([1]; Flood (flooded paddy test), 125 g ai/ha, scale 0 to 100, 0 no effect, 100 complete control): 65%
- pest or weed control at 250 g/ha ([1]; Flood (flooded paddy test), 250 g ai/ha, scale 0 to 100, 0 no effect, 100 complete control): 75%
- pest or weed control at 31 g/ha ([1]; Flood, 31 g ai/ha, scale 0 to 100): 40%
- Plant response rating, Chickweed ([2]; 16 g ai/ha, scale 0 to 100): 0
- Plant response rating, Chickweed [2, 8]: 0
- Plant response rating, Chickweed ([2]; 62 g ai/ha, scale 0 to 100): 0
- Plant response rating, Chickweed ([2]; 125 g ai/ha, scale 0 to 100): 0
- Plant response rating, Barley ([3]; 16 g ai/ha, scale 0 to 100, 0 no effect, 100 complete control): 90
- Plant response rating, Barley [3, 8]: 95
- Plant response rating, Barley ([3]; 62 g ai/ha, scale 0 to 100): 100
- Plant response rating, Barley ([3]; 125 g ai/ha, scale 0 to 100): 100
- Plant response rating, Canarygrass ([4]; 16 g ai/ha, scale 0 to 100): 80
- Plant response rating, Canarygrass [4, 8]: 100
- Plant response rating, Canarygrass ([4]; 62 g ai/ha, scale 0 to 100): 100
- Plant response rating, Canarygrass ([4]; 125 g ai/ha, scale 0 to 100): 100
- Plant response rating, Windgrass ([5]; 16 g ai/ha, scale 0 to 100): 100
- Plant response rating, Windgrass [5, 8]: 100
- Plant response rating, Windgrass ([5]; 62 g ai/ha, scale 0 to 100): 100
- Plant response rating, Windgrass ([5]; 125 g ai/ha, scale 0 to 100): 100
- Corn plant response rating (crop injury, 0 = no effect, 100 = complete kill) at 16 g/ha (corn (Zea mays); [9]): 100%
- Corn plant response rating (crop injury, 0 = no effect, 100 = complete kill) at 31 g/ha (corn (Zea mays); [10]): 100%
- Corn plant response rating (crop injury, 0 = no effect, 100 = complete kill) at 62 g/ha (corn (Zea mays); [9]): 100%
- Corn plant response rating (crop injury, 0 = no effect, 100 = complete kill) at 125 g/ha (corn (Zea mays); [9]): 100%
- Corn plant response rating (crop injury, 0 = no effect, 100 = complete kill) at 16 g/ha (corn (Zea mays); [11]): 70%
- Corn plant response rating (crop injury, 0 = no effect, 100 = complete kill) at 31 g/ha (corn (Zea mays); [12]): 85%
- Corn plant response rating (crop injury, 0 = no effect, 100 = complete kill) at 62 g/ha (corn (Zea mays); [13]): 95%
- Corn plant response rating (crop injury, 0 = no effect, 100 = complete kill) at 125 g/ha (corn (Zea mays); [13]): 100%
- pest or weed control at 16 g/ha [6, 9]: 0%
- pest or weed control at 31 g/ha [6, 10]: 0%
- pest or weed control at 62 g/ha ([6]; post-emergence, Postemergence, 62 g ai/ha, scale 0 to 100): 0%
- pest or weed control at 125 g/ha [6, 9]: 0%
- pest or weed control at 16 g/ha [6, 11]: 0%
- pest or weed control at 31 g/ha [6, 12]: 0%
- pest or weed control at 125 g/ha [6, 13]: 0%
- pest or weed control at 16 g/ha (wild oat (Avena fatua); [9]): 100%
- pest or weed control at 31 g/ha (wild oat (Avena fatua); [10]): 100%
- pest or weed control at 62 g/ha (wild oat (Avena fatua); [9]): 100%
- pest or weed control at 125 g/ha (wild oat (Avena fatua); [9]): 100%
- pest or weed control at 16 g/ha (wild oat (Avena fatua); [11]): 80%
- pest or weed control at 31 g/ha (wild oat (Avena fatua); [12]): 98%
- pest or weed control at 62 g/ha (wild oat (Avena fatua); [13]): 98%
- pest or weed control at 125 g/ha (wild oat (Avena fatua); [13]): 100%
- pest or weed control at 16 g/ha ([7]; 16 g ai/ha, scale 0 to 100): 0%
- pest or weed control at 31 g/ha [7, 8]: 0%
- pest or weed control at 62 g/ha ([7]; 62 g ai/ha, scale 0 to 100): 0%
- pest or weed control at 125 g/ha ([7]; 125 g ai/ha, scale 0 to 100): 0%
